Reference: US20260184675A1, “CHIRAL ISOMERIC SULFITE COMPOUND AND APPLICATION THEREOF” (Chengdu Hanova BioSciences Co., Ltd, priority 2024, published 2026)

Tested on: eggs of Tetranychus cinnabarinus
Experiment: Control efficacy on eggs of Tetranychus cinnabarinus of compounds compounded with ginger rhizome / Kaempferia galanga L rhizome mixture (Bliss joint action)
Type: in vivo
Details: for joint effect on controlling of eggs of Tetranychus cinnabarinus (in words): compounded with a mixture of ginger rhizome and Kaempferia galanga L rhizome (7:3); for Control efficacy for eggs of Tetranychus cinnabarinus on day 5 (%): single agent
Protocol: The ginger rhizome extract and volatile oil of Kaempferia galanga L rhizome were used to prepare a mixture of ginger rhizome and Kaempferia galanga L rhizome at a compounding ratio of 7:3, which was then compounded with compound 1, compound 10 and compound 19, and a leaf-disc method was used to evaluate the control efficacy on eggs of Tetranychus cinnabarinus based on the Experimental method in Example 1.
The ginger rhizome extract was prepared by extracting the ginger rhizome using a mixed solvent of ethyl acetate and ethanol at a ratio of 1:4.
According to the concept of independent joint action proposed by Bliss, the theoretical mortality rate P when the pesticides and acaricides are used in mixture can be calculated using the following equation: […]
Pm is the mortality rate (%) of the target when the first active component is used at a concentration of m; and Pn is the mortality rate (%) of the target when the second active component is used at a concentration of n.

Row | SMILES | joint effect on controlling of eggs of Tetranychus cinnabarinus (in words) | Control efficacy for eggs of Tetranychus cinnabarinus on day 5 (%) (0.1 mg/L) | Control efficacy for eggs of Tetranychus cinnabarinus on day 5 (%) (0.2 mg/L) | Control efficacy for eggs of Tetranychus cinnabarinus on day 5 (%) (0.5 mg/L) | Control efficacy for eggs of Tetranychus cinnabarinus on day 5 (%) (0.3 mg/L) | Control efficacy for eggs of Tetranychus cinnabarinus on day 5 (%) (0.25 mg/L)
1 | CC(C)(COc1ccc(Cl)cc1Cl)OS(=O)OCCF (stereo not drawn) [Compound 10] | synergistic effect | 11.45 | 20.79 | 68.12 | – | –
2 | CC(COS(=O)OCCF)Oc1ccc(Cl)cc1Cl (stereo not drawn) [Compound 1] | synergistic effect | 17.12 | 33.58 | – | 52.19 | –
3 | CCC(COc1ccc(Cl)cc1Cl)OS(=O)OCCF (stereo not drawn) [Compound 19] | synergistic effect | 20.57 | 36.14 | – | – | 48.73
